Experimental data from US20010053796A1, “Delta-aminolevulinic acid for prevention and treatment of infection microorganisms and parasite” (priority 2000, published 2001).

How the values were obtained:
[1] = tested on: White Spot Syndrome Virus (WSSV); test: Prevention for White Spot Syndrome Virus infected shrimp; assay type: in vivo, Penaeus Chinesis
Protocol: The Shrimps (Penaeus Chinesis, size 6˜8 cm) were immersed in 0.01˜10 ppm of EnviroVax for 1.5 hr during 3 days and injected viral homogenate at 4 day.
The Viral homogenate was prepared as follows:
Homogenize 1 g of tissue (gill and stomach) in 1 ml PBS.
Centrifuge at 2,000 rpm for 10 min. at 4° C.
Filter the supernatant by using the 0.45 μm membrane filter.
Dilute the filtrate (1 part of filtrate to 10 parts of PBS).

[2] = tested on: Scutica; test: Application to Scutica-infected seedling nursery; assay type: in vivo, flatfish; conditions: 30 ppm formalin day 1, then 1 ppm for 2 hrs on days 2 and 3
Protocol: Seedling was produced in flatfish seedling nursery and flatfish fry in seedling nursery, where marketing had stopped due to the infection of Scutica in a marketing stage (the length 5˜6 cm). They were treated with δ-aminolevulinic acid made by the inventors. Seriously infected fish were collected from seedling nursery and contained in water tanks and treated. On the first day, the fish were treated with 30 ppm formalin and, on the second and third day, were treated δ-aminolevulinic acid at concentration of 1 ppm for 2 hrs. […] Cultivation in a water tank of a fish farm where the ozone treatment system, which can control pathogenic organisms in seawater for cultivating, was applied has shown possibility of normal cultivation.

[3] = tested on: CHSE (Chinook Salmon Embryo); conditions: 24 h
Protocol: (§1) δ-aminolevulinic acid feed were prepared to 1.0 M concentration (0. 167 g/mL HBSS) and diluted by 10-fold dilution method. 100 μl of each fish cell line suspension of 2.5×10^5 were placed into 96-well microplate and then, 100 μl of each of the resulting diluted solution, 4 well/dilution unit, were added respectively. Fish cell lines, which were used for this cell toxicity experiment of δ-aminolevulinic acid, were RTG-2 (Rainbow Trout Gonad), FHM (Fathead Minnow Epithelioma) and CHSE (Chinook Salmon Embryo) lotted out from Dr. M. Yoshimizu of the Department of Fisheries, Hokkaido University, Japan. For these experimental cells, 100 U/mL penicillin (Sigma), 100 μl/mL streptomycin (Sigma) and MEM media supplemented with 5% fetal bovine serum (FBS, Gibco) for cell culture were used. Cultured cells in 96-well microplate was incubated for 3 hrs at 15° C. and δ-aminolevulinic acid were added to wells at amounts of 100 μl of 0, 1.0, 10, 50 and 100 mM and incubated for 24 hrs at 18° C. As a control group, instead of δ-aminolevulinic acid, HBSS was added at the same amount. […] Absorbance was measured with an ELISA reader at 570 μl.

[4] = tested on: Vibrio anguillarum; test: Prevention effect for artificial infection (abdominal injection of bacteria); assay type: in vivo, Bastardhalibut; conditions: for Mortality during Cultivation: dead of 20 fish
Protocol: The water temperature was maintained at 20° C. (±2° C. ) throughout the experiment.
As the same method of above Experiment 1, fishes of both control group and experiment group were prepared and artificially infected by direct abdominal injection of Edwardsiella tarda 10^5 CFU per 1 fish. Each experimental fish was moved to fish tanks for monitoring and monitored for mortality according to infection for 2 weeks and viability after 2 weeks.
Bastardhalibut and Sebastes schlegeli were infected by Vibrio anguillarum through abdominal injection with the same method of fish breeding; δ-aminolevulinic acid treatment and artificial infection carried out in Experiment 1 and 2.

[5] = tested on: FHM (Fathead Minnow Epithelioma); conditions: 24 h
Protocol: as §1

[6] = tested on: Edwardsiella tarda; test: Treatment of Edwardsiella bacteria-infected fish in a fish farm; assay type: in vivo, flatfish
From the text: Infected fish cultivated in the terrestrial fish tank were found in a fish farm, where flatfish (mean weight 11 g) were dying by spontaneous attack. The main source of infection was Edwardsiella tardaa. About 30˜40% of cumulative mortality per cultivating tank has shown after 5 days since the mortality started. […] On the first day, 0.1 ppm δ-aminolevulinic acid was digestion-treated in two tanks for 2 hrs and on the second and third day, 0.01 ppm δ-aminolevulinic acid was digested for 2 hrs. They were then observed, during the water was exchanged. δ-aminolevulinic acid digestion-treated tanks (about 3,000 fish) has maintained 40% cumulative mortality for 1 week after treatment, while δ-aminolevulinic acid non-treated tanks has shown 60% cumulative mortality and progressive disease was observed, more reporting 20% cumulative mortality thereafter.

[7] = tested on: Streptococcus sp.; test: Prevention effect for artificial infection (abdominal injection of bacteria); assay type: in vivo, Sebastes schlegeli; conditions: for Mortality during Cultivation: dead of 20 fish
Protocol: The water temperature was maintained at 20° C. (±2° C. ) throughout the experiment. […]
Bastardhalibut and Sebastes schlegeli were infected by Streptococcus sp. by abdominal injection with the same method of fish breeding, δ-aminolevulinic acid treatment and artificial infection carried out in Experiment 1 and 2. Each experimental fish was moved to fish tanks for monitoring and monitored for mortality according to infection for 2 weeks. […] The treated group, with δ-aminolevulinic acid by tank administration method and oral administration method, has shown viability of higher than 65%.

NCC(=O)CCC(=O)O [δ-aminolevulinic acid]
Cumulative mortality ([1]; 0.01 ppm, after injection for 3 weeks): 100%
Mortality after injection for 3 weeks ([1]; 0.01 ppm, day 1, 50 shrimp): 0
Mortality after injection for 3 weeks ([1]; 0.01 ppm, day 2, 50 shrimp): 0
Mortality after injection for 3 weeks ([1]; 0.01 ppm, day 3, 50 shrimp): 15
Mortality after injection for 3 weeks ([1]; 0.01 ppm, day 4, 50 shrimp): 20
Mortality after injection for 3 weeks ([1]; 0.01 ppm, day 5, 50 shrimp): 12
Mortality after injection for 3 weeks ([1]; 0.01 ppm, day 6, 50 shrimp): 3
Cumulative mortality ([1]; 0.1 ppm, after injection for 3 weeks): 12%
Mortality after injection for 3 weeks ([1]; 0.1 ppm, day 1, 50 shrimp): 0
Mortality after injection for 3 weeks ([1]; 0.1 ppm, day 2, 50 shrimp): 0
Mortality after injection for 3 weeks ([1]; 0.1 ppm, day 3, 50 shrimp): 2
Mortality after injection for 3 weeks ([1]; 0.1 ppm, day 4, 50 shrimp): 3
Mortality after injection for 3 weeks ([1]; 0.1 ppm, day 5, 50 shrimp): 1
Mortality after injection for 3 weeks ([1]; 0.1 ppm, day 6, 50 shrimp): 0
Mortality after injection for 3 weeks ([1]; 0.1 ppm, day 7, 50 shrimp): 0
Mortality after injection for 3 weeks ([1]; 0.1 ppm, day 21, 50 shrimp): 0
Cumulative mortality ([1]; 1.0 ppm, after injection for 3 weeks): 8%
Mortality after injection for 3 weeks ([1]; 1.0 ppm, day 1, 50 shrimp): 0
Mortality after injection for 3 weeks ([1]; 1.0 ppm, day 2, 50 shrimp): 1
Mortality after injection for 3 weeks ([1]; 1.0 ppm, day 3, 50 shrimp): 2
Mortality after injection for 3 weeks ([1]; 1.0 ppm, day 4, 50 shrimp): 1
Mortality after injection for 3 weeks ([1]; 1.0 ppm, day 5, 50 shrimp): 0
Mortality after injection for 3 weeks ([1]; 1.0 ppm, day 6, 50 shrimp): 0
Mortality after injection for 3 weeks ([1]; 1.0 ppm, day 7, 50 shrimp): 0
Mortality after injection for 3 weeks ([1]; 1.0 ppm, day 21, 50 shrimp): 0
Cumulative mortality ([1]; 10 ppm, after injection for 3 weeks): 6%
Mortality after injection for 3 weeks ([1]; 10 ppm, day 1, 50 shrimp): 0
Mortality after injection for 3 weeks ([1]; 10 ppm, day 2, 50 shrimp): 0
Mortality after injection for 3 weeks ([1]; 10 ppm, day 3, 50 shrimp): 3
Mortality after injection for 3 weeks ([1]; 10 ppm, day 4, 50 shrimp): 0
Mortality after injection for 3 weeks ([1]; 10 ppm, day 5, 50 shrimp): 0
Mortality after injection for 3 weeks ([1]; 10 ppm, day 6, 50 shrimp): 0
Mortality after injection for 3 weeks ([1]; 10 ppm, day 7, 50 shrimp): 0
Mortality after injection for 3 weeks ([1]; 10 ppm, day 21, 50 shrimp): 0
Cumulative mortality ([1]; immersion 1.0 ppm, 1.5 hr during 3 days before virus injection, 3 weeks): 8%
Cumulative mortality ([1]; immersion 10 ppm, 1.5 hr during 3 days before virus injection, 3 weeks): 6%
examination of infection through sampling of fish body ([2]; after 2 weeks of cultivation): no infection by Scutica
vitality of treated fish ([2]; after 1 day of treatment): highly improved
safe range of toxicity [3]: below 10 mM
Viability ([4]; orally, 0.1 ppm in feed): 65%
Mortality during Cultivation ([4]; orally, 0.1 ppm in feed): 7
Viability ([4]; orally, 1.0 ppm in feed): 55%
Mortality during Cultivation ([4]; orally, 1.0 ppm in feed): 9
Viability ([4]; orally, 10 ppm in feed): 85%
Mortality during Cultivation ([4]; orally, 10 ppm in feed): 3
Viability ([4]; orally, 100 ppm in feed): 90%
Mortality during Cultivation ([4]; orally, 100 ppm in feed): 2
Viability ([4]; to fish tanks, 0.01 ppm): 65%
Mortality during Cultivation ([4]; to fish tanks, 0.01 ppm): 7
Viability ([4]; to fish tanks, 0.1 ppm): 65%
Mortality during Cultivation ([4]; to fish tanks, 0.1 ppm): 7
Viability ([4]; to fish tanks, 1.0 ppm): 80%
Mortality during Cultivation ([4]; to fish tanks, 1.0 ppm): 2
Viability ([4]; to fish tanks, 10 ppm): 85%
Mortality during Cultivation ([4]; to fish tanks, 10 ppm): 3
safe range of toxicity [5]: below 10 mM
Cumulative mortality ([6]; digestion 0.1 ppm day 1, 0.01 ppm days 2 and 3, 2 hrs, maintained for 1 week after treatment): 40%
Cumulative mortality ([6]; digestion-treated groups in progressive disease, end result (non-treated 80%)): about 40%
Viability ([7]; orally, 0.1 ppm in feed): 70%
Mortality during Cultivation ([7]; orally, 0.1 ppm in feed): 6
Viability ([7]; orally, 1.0 ppm in feed): 70%
Mortality during Cultivation ([7]; orally, 1.0 ppm in feed): 6
Viability ([7]; orally, 10 ppm in feed): 85%
Mortality during Cultivation ([7]; orally, 10 ppm in feed): 3
Viability ([7]; orally, 100 ppm in feed): 90%
Mortality during Cultivation ([7]; orally, 100 ppm in feed): 2
Viability ([7]; to fish tanks, 0.01 ppm): 60%
Mortality during Cultivation ([7]; to fish tanks, 0.01 ppm): 8
Viability ([7]; to fish tanks, 0.1 ppm): 65%
Mortality during Cultivation ([7]; to fish tanks, 0.1 ppm): 7
Viability ([7]; to fish tanks, 1.0 ppm): 85%
Mortality during Cultivation ([7]; to fish tanks, 1.0 ppm): 3
Viability ([7]; to fish tanks, 10 ppm): 80%
Mortality during Cultivation ([7]; to fish tanks, 10 ppm): 4
